Source: publication PMC12196347, “Evaluating Triazole-Substituted Pyrrolopyrimidines as CSF1R Inhibitors” (Molecules, 2025)
Where two headings read alike, the source gives them in different places.

Assays:
Format in all cases: biochemical
Conditions in all cases: ATP equal to KM
[1] = molecular target: T1, ERBB2 (HER2) (Homo sapiens, UniProt P04626); assay: Kinase panel profiling: ERBB2
T1 construct: purchased Thermo Fisher Scientific (Invitrogen) SelectScreen (Z'-LYTE)

[2] = molecular target: T2, LTK (TYK1) (Homo sapiens, UniProt P29376); assay: Kinase panel profiling: LTK
T2 construct: purchased Thermo Fisher Scientific (Invitrogen) SelectScreen (Z'-LYTE)
T2 sequence (P29376 17-864): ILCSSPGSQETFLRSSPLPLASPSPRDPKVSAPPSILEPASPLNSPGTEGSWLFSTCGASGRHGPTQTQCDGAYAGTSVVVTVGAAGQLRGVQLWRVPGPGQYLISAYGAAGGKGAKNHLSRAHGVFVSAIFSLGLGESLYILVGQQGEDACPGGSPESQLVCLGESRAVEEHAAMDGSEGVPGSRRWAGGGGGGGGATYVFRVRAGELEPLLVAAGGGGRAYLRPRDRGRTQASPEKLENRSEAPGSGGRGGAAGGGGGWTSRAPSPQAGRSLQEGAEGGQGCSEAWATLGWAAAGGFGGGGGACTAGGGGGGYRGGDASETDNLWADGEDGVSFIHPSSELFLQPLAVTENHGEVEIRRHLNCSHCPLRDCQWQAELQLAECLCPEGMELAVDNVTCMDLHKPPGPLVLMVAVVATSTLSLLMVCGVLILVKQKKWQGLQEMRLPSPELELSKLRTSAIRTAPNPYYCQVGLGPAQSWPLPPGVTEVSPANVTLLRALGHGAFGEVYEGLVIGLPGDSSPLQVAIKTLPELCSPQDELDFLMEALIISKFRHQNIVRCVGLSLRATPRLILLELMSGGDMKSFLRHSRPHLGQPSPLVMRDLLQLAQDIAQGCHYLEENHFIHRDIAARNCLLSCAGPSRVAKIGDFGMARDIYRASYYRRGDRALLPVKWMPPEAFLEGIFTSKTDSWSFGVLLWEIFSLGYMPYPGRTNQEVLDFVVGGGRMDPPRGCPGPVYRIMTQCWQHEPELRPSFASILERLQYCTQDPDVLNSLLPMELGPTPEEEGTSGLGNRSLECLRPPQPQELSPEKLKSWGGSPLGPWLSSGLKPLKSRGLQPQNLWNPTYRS

[3] = molecular target: TEK (Tie2) (Homo sapiens, UniProt Q02763); assay: Kinase panel profiling: TEK
TEK (Tie2), sequence (Q02763 23-1124): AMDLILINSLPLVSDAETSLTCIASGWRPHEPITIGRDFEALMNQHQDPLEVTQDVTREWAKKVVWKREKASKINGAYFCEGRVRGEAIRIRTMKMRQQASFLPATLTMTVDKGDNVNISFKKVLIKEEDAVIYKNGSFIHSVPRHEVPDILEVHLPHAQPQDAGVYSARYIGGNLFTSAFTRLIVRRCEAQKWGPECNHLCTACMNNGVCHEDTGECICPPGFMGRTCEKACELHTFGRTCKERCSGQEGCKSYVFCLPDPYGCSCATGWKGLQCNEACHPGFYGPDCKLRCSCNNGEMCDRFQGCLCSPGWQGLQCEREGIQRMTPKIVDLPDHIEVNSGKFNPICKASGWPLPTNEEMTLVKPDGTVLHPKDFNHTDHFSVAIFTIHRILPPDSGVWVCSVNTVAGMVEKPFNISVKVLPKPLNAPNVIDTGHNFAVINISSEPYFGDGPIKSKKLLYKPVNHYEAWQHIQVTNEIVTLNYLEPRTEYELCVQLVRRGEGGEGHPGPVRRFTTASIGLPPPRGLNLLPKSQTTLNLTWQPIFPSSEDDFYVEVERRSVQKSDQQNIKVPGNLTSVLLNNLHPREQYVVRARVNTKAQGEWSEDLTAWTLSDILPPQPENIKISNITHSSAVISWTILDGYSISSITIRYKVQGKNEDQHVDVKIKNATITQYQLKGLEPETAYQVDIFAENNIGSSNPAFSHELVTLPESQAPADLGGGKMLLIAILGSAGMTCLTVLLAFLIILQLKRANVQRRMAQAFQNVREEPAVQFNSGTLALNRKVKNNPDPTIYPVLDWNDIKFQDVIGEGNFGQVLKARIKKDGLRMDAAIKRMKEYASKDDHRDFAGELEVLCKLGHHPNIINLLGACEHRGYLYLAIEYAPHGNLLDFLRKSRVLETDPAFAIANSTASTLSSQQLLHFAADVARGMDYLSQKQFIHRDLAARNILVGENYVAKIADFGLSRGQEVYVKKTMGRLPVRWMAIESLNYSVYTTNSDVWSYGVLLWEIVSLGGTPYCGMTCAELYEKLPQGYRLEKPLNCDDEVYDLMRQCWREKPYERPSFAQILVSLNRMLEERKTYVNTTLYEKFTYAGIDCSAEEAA

[4] = molecular target: PLK1 (Homo sapiens, UniProt P53350); assay: Kinase panel profiling: PLK1
PLK1, sequence (P53350 whole entry): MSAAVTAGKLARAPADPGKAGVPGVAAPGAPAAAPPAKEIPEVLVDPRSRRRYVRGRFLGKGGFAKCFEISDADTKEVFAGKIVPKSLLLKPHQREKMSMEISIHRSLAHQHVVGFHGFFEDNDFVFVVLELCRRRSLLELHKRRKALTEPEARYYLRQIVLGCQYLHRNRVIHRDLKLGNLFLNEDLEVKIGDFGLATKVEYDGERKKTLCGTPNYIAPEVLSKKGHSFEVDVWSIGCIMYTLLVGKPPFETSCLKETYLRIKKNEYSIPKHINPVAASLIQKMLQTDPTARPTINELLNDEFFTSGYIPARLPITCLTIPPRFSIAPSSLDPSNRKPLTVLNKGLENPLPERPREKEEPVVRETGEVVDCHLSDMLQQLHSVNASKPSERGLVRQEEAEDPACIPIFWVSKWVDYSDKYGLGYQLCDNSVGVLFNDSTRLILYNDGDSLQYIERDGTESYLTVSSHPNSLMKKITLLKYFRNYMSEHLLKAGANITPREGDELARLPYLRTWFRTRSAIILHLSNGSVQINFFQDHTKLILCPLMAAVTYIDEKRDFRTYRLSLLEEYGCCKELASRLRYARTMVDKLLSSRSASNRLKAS

[5] = molecular target: T3, BTK (Homo sapiens, UniProt Q06187); assay: Kinase panel profiling: BTK
T3 construct: purchased Thermo Fisher Scientific (Invitrogen) SelectScreen (Z'-LYTE)
T3 sequence (Q06187 whole entry): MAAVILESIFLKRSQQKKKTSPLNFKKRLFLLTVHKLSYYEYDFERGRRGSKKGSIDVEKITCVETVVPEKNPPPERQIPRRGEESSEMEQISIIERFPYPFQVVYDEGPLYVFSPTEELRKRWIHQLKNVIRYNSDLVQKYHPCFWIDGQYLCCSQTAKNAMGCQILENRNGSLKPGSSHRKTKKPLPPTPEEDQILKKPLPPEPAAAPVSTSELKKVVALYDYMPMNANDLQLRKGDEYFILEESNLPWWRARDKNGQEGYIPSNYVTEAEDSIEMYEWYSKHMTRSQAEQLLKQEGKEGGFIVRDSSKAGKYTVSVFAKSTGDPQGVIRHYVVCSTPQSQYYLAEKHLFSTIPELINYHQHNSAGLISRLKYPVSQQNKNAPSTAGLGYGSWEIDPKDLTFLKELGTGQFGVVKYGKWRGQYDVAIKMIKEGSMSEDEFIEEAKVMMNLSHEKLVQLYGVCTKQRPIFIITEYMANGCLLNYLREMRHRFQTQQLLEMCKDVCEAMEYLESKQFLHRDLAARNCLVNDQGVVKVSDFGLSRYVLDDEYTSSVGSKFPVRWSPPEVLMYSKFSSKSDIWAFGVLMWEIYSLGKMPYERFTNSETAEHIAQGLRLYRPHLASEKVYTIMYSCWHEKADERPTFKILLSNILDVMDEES

[6] = 1000 nM test concentration, read-out: Average inhibition (%)
[7] = 1000 nM, first data point, read-out: Inhibition (%)
[8] = 1000 nM, second data point, read-out: Inhibition (%)

T1 sequence (P04626 23-1255): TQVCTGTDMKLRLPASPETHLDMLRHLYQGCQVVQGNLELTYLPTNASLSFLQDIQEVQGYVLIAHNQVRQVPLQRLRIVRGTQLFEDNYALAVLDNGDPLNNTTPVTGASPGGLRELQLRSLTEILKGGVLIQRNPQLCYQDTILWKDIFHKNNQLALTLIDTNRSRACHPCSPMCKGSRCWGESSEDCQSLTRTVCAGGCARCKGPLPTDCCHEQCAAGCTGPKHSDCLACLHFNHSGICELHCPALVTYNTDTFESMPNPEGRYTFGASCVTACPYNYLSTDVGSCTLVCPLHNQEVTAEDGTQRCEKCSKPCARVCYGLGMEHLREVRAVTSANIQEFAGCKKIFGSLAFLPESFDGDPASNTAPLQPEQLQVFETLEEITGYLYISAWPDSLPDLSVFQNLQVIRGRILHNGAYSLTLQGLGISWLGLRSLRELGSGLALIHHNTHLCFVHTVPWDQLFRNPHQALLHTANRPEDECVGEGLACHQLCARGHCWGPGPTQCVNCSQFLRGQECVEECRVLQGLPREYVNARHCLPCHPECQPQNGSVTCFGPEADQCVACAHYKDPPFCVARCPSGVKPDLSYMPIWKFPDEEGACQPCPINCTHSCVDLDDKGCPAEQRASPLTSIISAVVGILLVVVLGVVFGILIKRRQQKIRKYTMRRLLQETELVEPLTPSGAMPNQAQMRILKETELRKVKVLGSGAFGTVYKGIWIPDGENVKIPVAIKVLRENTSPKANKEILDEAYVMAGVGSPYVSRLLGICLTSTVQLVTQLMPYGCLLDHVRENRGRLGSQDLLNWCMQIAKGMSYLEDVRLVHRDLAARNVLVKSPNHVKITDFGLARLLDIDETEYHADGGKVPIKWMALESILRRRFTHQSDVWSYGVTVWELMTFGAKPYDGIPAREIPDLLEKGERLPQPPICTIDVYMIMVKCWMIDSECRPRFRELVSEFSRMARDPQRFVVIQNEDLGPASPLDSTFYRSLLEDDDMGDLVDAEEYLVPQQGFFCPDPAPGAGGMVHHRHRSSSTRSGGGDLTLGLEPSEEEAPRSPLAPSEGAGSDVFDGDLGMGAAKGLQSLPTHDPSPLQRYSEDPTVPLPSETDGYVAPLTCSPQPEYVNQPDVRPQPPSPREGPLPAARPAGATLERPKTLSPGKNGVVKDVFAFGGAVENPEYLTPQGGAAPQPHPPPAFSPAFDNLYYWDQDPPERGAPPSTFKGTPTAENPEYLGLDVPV

SMILES: Cc1cccc(CN(C)c2ncnc3[nH]c(-c4cn(Cc5cccnc5)nn4)cc23)c1 [Compound 27a, N-Methyl-N-(3-methylbenzyl)-6-(1-(pyridin-3-ylmethyl)-1H-1,2,3-triazol-4-yl)-7H-pyrrolo[2,3-d]pyrimidin-4-amine]
- inhibition at 1 µM [1, 6]: 32%
- inhibition at 1 µM [1, 7]: 33%
- inhibition at 1 µM [1, 8]: 32%
- inhibition at 1 µM [2, 6]: 25%
- inhibition at 1 µM [2, 7]: 25%
- inhibition at 1 µM [3, 6]: 42%
- inhibition at 1 µM [3, 7]: 44%
- inhibition at 1 µM [3, 8]: 40%
- inhibition at 1 µM [4, 6]: 6%
- inhibition at 1 µM [4, 7]: 5%
- inhibition at 1 µM [4, 8]: 6%
- inhibition at 1 µM [5, 6]: 46%
- inhibition at 1 µM [5, 7]: 50%
- inhibition at 1 µM [5, 8]: 42%
